Data taken from patent publication US20230167103A1 (Bayer Aktiengesellschaft, priority 2020, published 2023).

Target: T1, human DGKζ (Homo sapiens, UniProt Q13574)
T1 construct: made in house; host or cells: Sf9 insect cells, baculovirus
Test: Human DGKζ kinase activity inhibition assay (ADP-Glo)
Format: biochemical
Conditions: example compounds; recombinant full-length human DGKζ, 1,2-dioleoyl-sn-glycerol 7 μM, ATP 55 μM, 20 min at 22° C.; read-out: IC50 values of examples in in vitro human DGKζ kinase activity inhibition assays
Procedure, shortened: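 Enzyme was C-terminally FLAG-tagged full-length human DGKζ from baculovirus-infected insect cells, typically about 0.1 nM, with 1,2-dioleoyl-sn-glycerol in octyl-β-D-glucopyranoside micelles as substrate. ADP formed was detected by ADP-Glo luminescence; data normalised to no-inhibitor (0%) and no-enzyme (100%) controls.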

T1 sequence (Q13574 with tags, fused parts or gaps): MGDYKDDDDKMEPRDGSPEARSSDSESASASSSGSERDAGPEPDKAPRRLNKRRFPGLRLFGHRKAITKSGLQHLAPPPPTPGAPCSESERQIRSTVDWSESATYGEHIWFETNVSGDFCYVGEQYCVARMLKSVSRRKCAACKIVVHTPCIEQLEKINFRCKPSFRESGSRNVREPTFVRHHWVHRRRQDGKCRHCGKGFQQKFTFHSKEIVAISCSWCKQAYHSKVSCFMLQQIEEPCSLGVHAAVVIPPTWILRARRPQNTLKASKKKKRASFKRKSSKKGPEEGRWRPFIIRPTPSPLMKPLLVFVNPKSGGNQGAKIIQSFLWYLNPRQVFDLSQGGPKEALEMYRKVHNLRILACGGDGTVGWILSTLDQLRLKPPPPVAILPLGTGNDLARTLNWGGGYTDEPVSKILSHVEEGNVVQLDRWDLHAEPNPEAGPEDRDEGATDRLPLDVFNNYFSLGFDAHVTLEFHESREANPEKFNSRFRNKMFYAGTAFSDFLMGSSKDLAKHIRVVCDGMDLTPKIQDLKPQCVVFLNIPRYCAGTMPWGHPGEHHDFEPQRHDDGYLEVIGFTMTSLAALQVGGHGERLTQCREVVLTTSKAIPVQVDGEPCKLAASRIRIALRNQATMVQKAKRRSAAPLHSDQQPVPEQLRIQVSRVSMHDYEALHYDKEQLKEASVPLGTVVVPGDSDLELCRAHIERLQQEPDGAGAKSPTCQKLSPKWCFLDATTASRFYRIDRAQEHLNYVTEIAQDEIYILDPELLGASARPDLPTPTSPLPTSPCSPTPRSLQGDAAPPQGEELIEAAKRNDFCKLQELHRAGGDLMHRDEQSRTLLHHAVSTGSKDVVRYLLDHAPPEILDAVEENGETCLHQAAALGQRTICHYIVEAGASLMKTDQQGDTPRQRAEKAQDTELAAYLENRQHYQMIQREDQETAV

Compound	IC50 [nM]
CC(C(N)=O)N(c1ccc(F)cc1)c1nc(N)c(C(=O)c2cc(-c3ccccc3F)no2)s1 (racemic) [Example 67, rac-2-(N-[4-amino-5-[3-(2-fluorophenyl)isoxazole-5-carbonyl]thiazol-2-yl]-4-fluoro-anilino)propanamide]	109
CC(C(N)=O)N(c1ccc(F)cc1)c1nc(N)c(C(=O)c2cc(-c3ccccn3)no2)s1 (racemic) [Example 68, rac-2-(N-[4-amino-5-[3-(2-pyridypisoxazole-5-carbonyl]thiazol-2-yl]-4-fluoro-anilino)propanamide]	402
CC(C(N)=O)N(c1ccc(F)cc1)c1nc(N)c(C(=O)c2cc(-c3ccc(OC(F)(F)F)cc3)no2)s1 (racemic) [Example 69, rac-2-(N-[4-amino-5-[3-[4-(trifluoromethoxy)phenyl]isoxazole-5-carbonyl]thiazol-2-yl]-4-fluoro-anilino)propanamide]	117
COc1ccccc1-c1cc(C(=O)c2sc(N(c3ccc(F)cc3)C(C)C(N)=O)nc2N)on1 (racemic) [Example 70, rac-2-(N-[4-amino-5-[3-(2-methoxyphenyl)isoxazole-5-carbonyl]thiazol-2-yl]-4-fluoro-anilino)propanamide]	27
COc1ccc(-c2cc(C(=O)c3sc(N(c4ccc(F)cc4)C(C)C(N)=O)nc3N)on2)cn1 (racemic) [Example 71, rac-2-(N-[4-amino-5-[3-(6-methoxy-3-pyridyl))isoxazole-5-carbonyl]thiazol-2-yl]-4-fluoro-anilino)propanamide]	96
CC(C(N)=O)N(c1ccc(F)cc1)c1nc(N)c(C(=O)c2cc(CN3CC(F)C3)no2)s1 (racemic) [Example 73, rac-2-(N-[4-amino-5-[3-[(3-fluoroazetidin-1-yl)methyl]isoxazole-5-carbonyl]thiazol-2-yl]-4-fluoro-anilino)propanamide]	325
CC(C(N)=O)N(c1ccc(F)cc1)c1nc(N)c(C(=O)c2cc(CN3CC(F)(F)C3)no2)s1 (racemic) [Example 74, rac-2-(N-[4-amino-5-[3-[(3,3-difluoroazetidin-1-yl)methyl]isoxazole-5-carbonyl]thiazol-2-yl]-4-fluoro-anilino)propanamide]	113
CC(C(N)=O)N(c1ccc(F)cc1)c1nc(N)c(C(=O)c2cc(CN3CCC(F)(F)CC3)no2)s1 (racemic) [Example 75, rac-2-(N-[4-amino-5-[3-[(4,4-difluoro-1-piperidyl)methyl]isoxazole-5-carbonyl]thiazol-2-yl]-4-fluoro-anilino)propanamide]	26
CC(C(N)=O)N(c1ccc(F)cc1)c1nc(N)c(C(=O)c2cc(OC3CCC3)no2)s1 (racemic) [Example 79, rac-2-(N-[4-amino-5-[3-(cyclobutoxy)isoxazole-5-carbonyl]thiazol-2-yl]-4-fluoro-anilino)propanamide]	88
CC(C(N)=O)N(c1ccc(F)cc1)c1nc(N)c(C(=O)c2cc(OCC3CCC3)no2)s1 (racemic) [Example 80, rac-2-(N-[4-amino-5-[3-(cyclobutylmethoxy)isoxazole-5-carbonyl]thiazol-2-yl]-4-fluoro-anilino)propanamide]	31
CC(C(N)=O)N(c1ccc(F)cc1)c1nc(N)c(C(=O)c2cc(OC3CCC(F)(F)CC3)no2)s1 (racemic) [Example 81, rac-2-(N-[4-Amino-5-[3-(4,4-difluorocyclohexoxy)isoxazole-5-carbonyl]thiazol-2-yl]-4-fluoro-anilino)propanamide]	17
CC(C)Oc1cc(C(=O)c2sc(N(c3ccc(F)cc3)C(C)C(N)=O)nc2N)on1 (racemic) [Example 82, rac-2-(N-[4-amino-5-(3-isopropoxyisoxazole-5-carbonyl)thiazol-2-yl]-4-fluoro-anilino)propanamide]	49
CC(C(N)=O)N(c1ccc(F)cc1)c1nc(N)c(C(=O)c2cc(-c3ccccc3)no2)s1 (single isomer, unassigned) [Example 3.2, 2-(N-[4-amino-5-(3-phenylisoxazole-5-carbonyl)thiazol-2-yl]-4-fluoro-anilino)propanamide]	1750
CC(C(N)=O)N(c1ccc(F)cc1)c1nc(N)c(C(=O)c2cc(Br)no2)s1 (single isomer, unassigned) [Example 6.1, 2-(N-[4-amino-5-(3-bromoisoxazole-5-carbonyl)thiazol-2-yl]-4-fluoro-anilino)propanamide]	64
CC(C(N)=O)N(c1ccc(F)cc1)c1nc(N)c(C(=O)c2cc(Br)no2)s1 (single isomer, unassigned) [Example 6.2, 2-(N-[4-amino-5-(3-bromoisoxazole-5-carbonyl)thiazol-2-yl]-4-fluoro-anilino)propanamide]	3490
CC(C(N)=O)N(c1ccc(F)cc1)c1nc(N)c(C(=O)c2cc(C(=O)NC3(C)CCC3)no2)s1 (single isomer, unassigned) [Example 30.1, 5-[4-amino-2-(N-(2-amino-1-methyl-2-oxo-ethyl)-4-fluoro-anilino)thiazole-5-carbonyl]-N-(1-methylcyclobutyl)isoxazole-3-carboxamide]	29
CC(C(N)=O)N(c1ccc(F)cc1)c1nc(N)c(C(=O)c2cc(C(=O)NC3(C)CCC3)no2)s1 (single isomer, unassigned) [Example 30.2, 5-[4-amino-2-(N-(2-amino-1-methyl-2-oxo-ethyl)-4-fluoro-anilino)thiazole-5-carbonyl]-N-(1-methylcyclobutyl)isoxazole-3-carboxamide]	13400
CC(C(N)=O)N(c1ccc(F)cc1)c1nc(N)c(C(=O)c2cc(C(=O)NC3CC(F)(F)C3)no2)s1 (single isomer, unassigned) [Example 32.1, 5-[4-amino-2-(N-(2-amino-1-methyl-2-oxo-ethyl)-4-fluoro-anilino)thiazole-5-carbonyl]-N-(3,3-difluorocyclobutyl)isoxazole-3-carboxamide]	31
CC(C(N)=O)N(c1ccc(F)cc1)c1nc(N)c(C(=O)c2cc(C(=O)NC3CC(F)(F)C3)no2)s1 (single isomer, unassigned) [Example 32.2, 5-[4-amino-2-(N-(2-amino-1-methyl-2-oxo-ethyl)-4-fluoro-anilino)thiazole-5-carbonyl]-N-(3,3-difluorocyclobutyl)isoxazole-3-carboxamide]	897
CC(C(N)=O)N(c1ccc(F)c(F)c1)c1nc(N)c(C(=O)c2cc(C(=O)NC3(C)CCC3)no2)s1 (single isomer, unassigned) [Example 44.1, 5-[4-amino-2-(N-(2-amino-1-methyl-2-oxo-ethyl)-3,4-difluoro-anilino)thiazole-5-carbonyl]-N-(1-methylcyclobutyl)isoxazole-3-carboxamide]	19
CC(C(N)=O)N(c1ccc(F)c(F)c1)c1nc(N)c(C(=O)c2cc(C(=O)NC3(C)CCC3)no2)s1 (single isomer, unassigned) [Example 44.2, 5-[4-amino-2-(N-(2-amino-1-methyl-2-oxo-ethyl)-3,4-difluoro-anilino)thiazole-5-carbonyl]-N-(1-methylcyclobutyl)isoxazole-3-carboxamide]	4510
CC(C(N)=O)N(c1ccc(F)c(F)c1)c1nc(N)c(C(=O)c2cc(C(=O)NC3CC(F)(F)C3)no2)s1 (single isomer, unassigned) [Example 45.1, 5-[4-amino-2-(N-(2-amino-1-methyl-2-oxo-ethyl)-3,4-difluoro-anilino)thiazole-5-carbonyl]-N-(3,3-difluorocyclobutyl)isoxazole-3-carboxamide]	20
CC(C(N)=O)N(c1ccc(F)c(F)c1)c1nc(N)c(C(=O)c2cc(C(=O)NC3CC(F)(F)C3)no2)s1 (single isomer, unassigned) [Example 45.2, 5-[4-amino-2-(N-(2-amino-1-methyl-2-oxo-ethyl)-3,4-difluoro-anilino)thiazole-5-carbonyl]-N-(3,3-difluorocyclobutyl)isoxazole-3-carboxamide]	1270
CC(C(N)=O)N(c1ccc(F)c(F)c1)c1nc(N)c(C(=O)c2cc(C(=O)NC3CCCC3)no2)s1 (single isomer, unassigned) [Example 46.1, 5-[4-amino-2-(N-(2-amino-1-methyl-2-oxo-ethyl)-3,4-difluoro-anilino)thiazole-5-carbonyl]-N-cyclopentyl-isoxazole-3-carboxamide]	27
CC(C(N)=O)N(c1ccc(F)c(F)c1)c1nc(N)c(C(=O)c2cc(C(=O)NC3CCCC3)no2)s1 (single isomer, unassigned) [Example 46.2, 5-[4-amino-2-(N-(2-amino-1-methyl-2-oxo-ethyl)-3,4-difluoro-anilino)thiazole-5-carbonyl]-N-cyclopentyl-isoxazole-3-carboxamide]	2280
C[C@H](C(N)=O)N(c1ccc(F)cc1)c1nc(N)c(C(=O)c2cc(-c3ccccc3)no2)s1 [Example 3.1, (R)-2-(N-[4-amino-5-(3-phenylisoxazole-5-carbonyl)thiazol-2-yl]-4-fluoro-anilino)propanamide]	61

Same assay, conditions: intermediates (comparative, lacking the R2 alkyl-carboxamide group); same assay conditions; read-out: IC50 values of intermediates in in vitro human DGKζ kinase activity inhibition assays

Compound	IC50 [nM]
rac-2-(N-[4-amino-5-[3-(pyrrolidine-1-carbonyl)isoxazole-5-carbonyl]thiazol-2-yl]-4-fluoro-anilino)propanamide [Example 19]	> 20000
rac-5-[4-amino-2-(N-(2-amino-1-methyl-2-oxo-ethyl)-4-fluoro-anilino)thiazole-5-carbonyl]-N-(1-cyclopropylcyclopropyl)isoxazole-3-carboxamide [Example 24]	> 20000
rac-5-[4-amino-2-(N-(2-amino-1-methyl-2-oxo-ethyl)-4-fluoro-anilino)thiazole-5-carbonyl]-N-(1-methylcyclobutyl)isoxazole-3-carboxamide [Example 30]	12000
